Measurements reported in PubChem BioAssay AID192 (DTP/NCI, 2004).
Values joined by “and” are separate entries in the source; they are usually repeats but may differ in a detail not shown here. Equal values may be shown once. Inconclusive results and toxic doses are left out.

Tested on: BDF1 mice, B16 melanoma ip, median survival T/C
Assay: NCI In Vivo Anticancer Drug Screen. Data for tumor model B16 Melanoma (intraperitoneal) in B6D2F1 (BDF1) mice
Settings: endpoint: median survival time, higher = longer survival
How it was run: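 Survival or tumor size is measured after treatment of tumor-bearing mice and normalised to the vehicle-treated control group.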

[1] = dose: 50.0 mg/kg/injection, schedule: Q01DX009 (ip), vehicle: saline with Tween-80
[2] = dose: 100.0 mg/kg/injection, schedule: Q01DX009 (ip), vehicle: saline with Tween-80
[3] = dose: 200.0 mg/kg/injection, schedule: Q01DX009 (ip), vehicle: saline with Tween-80
[4] = dose: 12.5 mg/kg/injection, schedule: Q01DX009 (ip), vehicle: saline
[5] = dose: 25.0 mg/kg/injection, schedule: Q01DX009 (ip), vehicle: saline
[6] = dose: 400.0 mg/kg/injection, schedule: Q01DX009 (ip), vehicle: saline with Tween-80
[7] = dose: 50.0 mg/kg/injection, schedule: Q01DX009 (ip), vehicle: saline
[8] = dose: 100.0 mg/kg/injection, schedule: Q01DX009 (ip), vehicle: saline
[9] = dose: 200.0 mg/kg/injection, schedule: Q01DX009 (ip), vehicle: saline
[10] = dose: 400.0 mg/kg/injection, schedule: Q01DX009 (ip), vehicle: saline
[11] = dose: 25.0 mg/kg/injection, schedule: Q01DX009 (ip), vehicle: saline with Tween-80
[12] = dose: 100.0 mg/kg/injection, schedule: Q01DX009 (ip), vehicle: Klucel (hydroxypropylcellulose) (HPC)
[13] = dose: 200.0 mg/kg/injection, schedule: Q01DX009 (ip), vehicle: Klucel (hydroxypropylcellulose) (HPC)
[14] = dose: 400.0 mg/kg/injection, schedule: Q01DX009 (ip), vehicle: Klucel (hydroxypropylcellulose) (HPC)
[15] = dose: 100.0 mg/kg/injection, schedule: Q04DX003 (ip), vehicle: saline with Tween-80
[16] = dose: 200.0 mg/kg/injection, schedule: Q04DX003 (ip), vehicle: saline with Tween-80
[17] = dose: 400.0 mg/kg/injection, schedule: Q04DX003 (ip), vehicle: saline with Tween-80

O=C1N[C@@H]([C@H]2CC[C@H](Cl)CN2)C(=O)N[C@H]1[C@H]1CC[C@H](Cl)CN1
T/C (dose: 0.05 mg/kg/injection, schedule: Q01DX009 (ip), vehicle: saline): 107 % of control
T/C (dose: 0.1 mg/kg/injection, schedule: Q01DX009 (ip), vehicle: saline): 116 % of control
T/C (dose: 0.5 mg/kg/injection, schedule: Q04DX003 (ip), vehicle: saline): 103 % of control
T/C (dose: 1.0 mg/kg/injection, schedule: Q01DX001 (ip), vehicle: saline): 115 % of control
T/C (dose: 1.0 mg/kg/injection, schedule: Q04DX003 (ip), vehicle: saline): 119 % of control
T/C (dose: 1.25 mg/kg/injection, schedule: Q01DX001 (ip), vehicle: saline): 119 % of control
T/C (dose: 2.0 mg/kg/injection, schedule: Q01DX001 (ip), vehicle: saline): 120 % of control
T/C (dose: 2.0 mg/kg/injection, schedule: Q04DX003 (ip), vehicle: saline): 124 % of control
T/C (dose: 2.5 mg/kg/injection, schedule: Q01DX001 (ip), vehicle: saline): 114 % of control
T/C (dose: 10.0 mg/kg/injection, schedule: Q01DX009 (ip), vehicle: alkali diluted with saline): 30 % of control
T/C (dose: 16.0 mg/kg/injection, schedule: Q01DX001 (ip), vehicle: saline): 154 % of control
T/C (dose: 20.0 mg/kg/injection, schedule: Q01DX009 (ip), vehicle: alkali diluted with saline): 30 % of control
T/C (dose: 40.0 mg/kg/injection, schedule: Q01DX009 (ip), vehicle: alkali diluted with saline): 27 % of control
T/C (dose: 80.0 mg/kg/injection, schedule: Q01DX009 (ip), vehicle: alkali diluted with saline): 16 % of control

CSCCC1NC(=O)C(C(C)=Nc2ccccc2)=C1O (configuration not stated)
T/C [1]: 100 % of control
T/C [2]: 96 % of control
T/C [3]: 95 % of control

Cc1ccc(C(=O)NCCCOc2ccc(N3C(N)=NC(N)=NC3(C)C)cc2Cl)cc1S(=O)(=O)F
T/C [4]: 96 % of control
T/C [5]: 91 % of control

O=C1O/C(=C\c2ccccc2)c2c(Br)c(Br)c(Br)c(Br)c21
T/C [1]: 112 % of control
T/C [2]: 107 % of control
T/C [3]: 112 % of control
T/C [6]: 112 % of control

CCOC(=O)N(Cc1ccccc1)C1CC1
T/C (dose: 0.78 mg/kg/injection, schedule: Q04DX003 (ip), vehicle: saline): 101 % of control
T/C (dose: 1.56 mg/kg/injection, schedule: Q04DX003 (ip), vehicle: saline): 93 % of control
T/C (dose: 3.12 mg/kg/injection, schedule: Q04DX003 (ip), vehicle: saline): 97 % of control
T/C (dose: 6.25 mg/kg/injection, schedule: Q04DX003 (ip), vehicle: saline): 101 % of control
T/C (dose: 12.5 mg/kg/injection, schedule: Q04DX003 (ip), vehicle: saline): 105 % of control
T/C [5]: 105 % of control
T/C [7]: 100 % of control
T/C [8]: 94 % of control
T/C [9]: 102 % of control
T/C [10]: 107 % of control

C[n+]1ccc2cc(N)c3c4ccccc4sc3c2c1
T/C (dose: 3.12 mg/kg/injection, schedule: Q01DX009 (ip), vehicle: Klucel (hydroxypropylcellulose) (HPC)): 103 % of control
T/C (dose: 6.25 mg/kg/injection, schedule: Q01DX009 (ip), vehicle: Klucel (hydroxypropylcellulose) (HPC)): 101 % of control
T/C (dose: 6.25 mg/kg/injection, schedule: Q01DX009 (ip), vehicle: saline): 113 % of control
T/C (dose: 12.5 mg/kg/injection, schedule: Q01DX009 (ip), vehicle: Klucel (hydroxypropylcellulose) (HPC)): 95 % of control
T/C [4]: 119 % of control
T/C [5]: 91 % of control

C(C#CCN1CCOCC1)#CCN1CCOCC1
T/C (dose: 12.5 mg/kg/injection, schedule: Q01DX009 (ip), vehicle: saline with Tween-80): 102 % of control and 103 % of control
T/C [11]: 97 % of control
T/C [1]: 93 % of control and 96 % of control
T/C [2]: 90 % of control and 97 % of control (2×)
T/C [3]: 90 % of control and 97 % of control (2×)
T/C [6]: 90 % of control and 97 % of control and 107 % of control

O=P(N1CC1)(N1CC1)N1CC1
T/C (dose: 0.75 mg/kg/injection, schedule: Q01DX009 (ip), vehicle: saline with Tween-80): 120 % of control
T/C (dose: 1.0 mg/kg/injection, schedule: Q01DX009 (ip), vehicle: saline): 110 % of control
T/C (dose: 2.0 mg/kg/injection, schedule: Q01DX009 (ip), vehicle: saline): 120 % of control

CSc1nc(NC(C)C)nc(NC(C)C)n1
T/C [11]: 102 % of control
T/C [1]: 92 % of control
T/C [2]: 102 % of control

Cc1ccc(NC(=O)Nc2cccc(Cl)c2C)cc1C
T/C (dose: 25.0 mg/kg/injection, schedule: Q01DX009 (ip), vehicle: Klucel (hydroxypropylcellulose) (HPC)): 98 % of control
T/C (dose: 50.0 mg/kg/injection, schedule: Q01DX009 (ip), vehicle: Klucel (hydroxypropylcellulose) (HPC)): 86 % of control
T/C [12]: 92 % of control

CCOc1ccc(NC(=O)Nc2ccccc2)cc1
T/C [2]: 86 % of control

ClC1OC(Cl)(Cl)C(Cl)(Cl)OC1(Cl)Cl (configuration not stated)
T/C [12]: 93 % of control
T/C [13]: 93 % of control
T/C [14]: 86 % of control

CC#CCOCC1CN(c2ccccc2)C(=O)O1 (configuration not stated)
T/C [5]: 102 % of control
T/C [7]: 97 % of control
T/C [8]: 102 % of control
T/C [15]: 97 % of control
T/C [9]: 100 % of control
T/C [16]: 94 % of control
T/C [10]: 97 % of control
T/C [17]: 94 % of control

Cc1cc(Cl)ccc1NS(=O)(=O)c1ccccc1
T/C [12]: 88 % of control
T/C [13]: 88 % of control

C1=CC2CC3(OCCO3)C2C1 (configuration not stated)
T/C [1]: 88 % of control
T/C [2]: 106 % of control
T/C [3]: 93 % of control

S=P(N1CC1)(N1CC1)N1CC1
T/C (dose: 0.5 mg/kg/injection, schedule: Q01DX009 (ip), vehicle: saline): 104 % of control
T/C (dose: 1.0 mg/kg/injection, schedule: Q02DX009 (ip), vehicle: saline): 106 % of control and 120 % of control
T/C (dose: 1.5 mg/kg/injection, schedule: Q01DX009 (ip), vehicle: saline): 110 % of control and 120 % of control
T/C (dose: 1.5 mg/kg/injection, schedule: Q02DX009 (ip), vehicle: saline): 112 % of control
T/C (dose: 2.0 mg/kg/injection, schedule: Q02DX009 (ip), vehicle: saline): 94 % of control and 111 % of control
T/C (dose: 3.0 mg/kg/injection, schedule: Q01DX009 (ip), vehicle: saline): 104 % of control and 111 % of control
T/C (dose: 3.0 mg/kg/injection, schedule: Q02DX009 (ip), vehicle: saline): 120 % of control
T/C (dose: 4.0 mg/kg/injection, schedule: Q02DX009 (ip), vehicle: saline): 119 % of control and 120 % of control
T/C (dose: 6.0 mg/kg/injection, schedule: Q01DX009 (ip), vehicle: saline): 86 % of control
T/C (dose: 6.0 mg/kg/injection, schedule: Q02DX009 (ip), vehicle: saline): 116 % of control and 117 % of control
T/C (dose: 8.0 mg/kg/injection, schedule: Q02DX009 (ip), vehicle: saline): 88 % of control and 122 % of control
T/C (dose: 12.0 mg/kg/injection, schedule: Q02DX009 (ip), vehicle: saline): 86 % of control

C=CCC(OC(=O)c1ccc(Br)cc1)C1(C)OC1C(C)C1CC(O)(C(OC)OC)NC(=O)O1 (configuration not stated)
T/C (dose: 0.25 mg/kg/injection, schedule: Q01DX009 (ip), vehicle: saline + alcohol): 100 % of control
T/C (dose: 0.5 mg/kg/injection, schedule: Q01DX009 (ip), vehicle: saline + alcohol): 103 % of control
T/C (dose: 1.0 mg/kg/injection, schedule: Q01DX009 (ip), vehicle: saline + alcohol): 93 % of control
T/C (dose: 2.0 mg/kg/injection, schedule: Q01DX009 (ip), vehicle: saline + alcohol): 98 % of control
T/C (dose: 4.0 mg/kg/injection, schedule: Q01DX009 (ip), vehicle: saline + alcohol): 90 % of control

OCC1OC(Oc2ccc(O)cc2)C(O)C(O)C1O (configuration not stated)
T/C [7]: 100 % of control
T/C [8]: 99 % of control
T/C [9]: 96 % of control
T/C [10]: 101 % of control

OC1CC2CC1C=C2c1ccccc1 (configuration not stated)
T/C [15]: 102 % of control
T/C [16]: 105 % of control
T/C [17]: 94 % of control

COc1ccc(COC(=O)CN2C(=O)c3ccccc3C2=O)cc1
T/C [12]: 105 % of control
T/C [13]: 107 % of control
T/C [14]: 100 % of control

Cc1ccc(NC(=O)c2ccccc2)c(C)c1
T/C [1]: 95 % of control
T/C (dose: 50.0 mg/kg/injection, schedule: Q04DX003 (ip), vehicle: saline with Tween-80): 97 % of control
T/C [2]: 105 % of control
T/C [15]: 100 % of control
T/C [3]: 92 % of control
T/C [16]: 90 % of control

CC(=O)CCCc1ccccc1
T/C [8]: 112 % of control
T/C [9]: 116 % of control
T/C [10]: 98 % of control

CCC(CC)(CO)CO
T/C [5]: 92 % of control
T/C [7]: 102 % of control
T/C [8]: 104 % of control
T/C [9]: 107 % of control
T/C [10]: 97 % of control
